Experimental data from publication PMC9851200, “Multiparameter phenotypic screening for endogenous TFEB and TFE3 translocation identifies novel chemical series modulating lysosome function” (Autophagy, 2022).

How the values were obtained:
Type in all cases: binding
[1] = target: T1, kinases (KINOMEscan panel) (Homo sapiens, UniProt O15146); details: MUSK; NEW KINOMEscan
T1 sequence (O15146 24-869): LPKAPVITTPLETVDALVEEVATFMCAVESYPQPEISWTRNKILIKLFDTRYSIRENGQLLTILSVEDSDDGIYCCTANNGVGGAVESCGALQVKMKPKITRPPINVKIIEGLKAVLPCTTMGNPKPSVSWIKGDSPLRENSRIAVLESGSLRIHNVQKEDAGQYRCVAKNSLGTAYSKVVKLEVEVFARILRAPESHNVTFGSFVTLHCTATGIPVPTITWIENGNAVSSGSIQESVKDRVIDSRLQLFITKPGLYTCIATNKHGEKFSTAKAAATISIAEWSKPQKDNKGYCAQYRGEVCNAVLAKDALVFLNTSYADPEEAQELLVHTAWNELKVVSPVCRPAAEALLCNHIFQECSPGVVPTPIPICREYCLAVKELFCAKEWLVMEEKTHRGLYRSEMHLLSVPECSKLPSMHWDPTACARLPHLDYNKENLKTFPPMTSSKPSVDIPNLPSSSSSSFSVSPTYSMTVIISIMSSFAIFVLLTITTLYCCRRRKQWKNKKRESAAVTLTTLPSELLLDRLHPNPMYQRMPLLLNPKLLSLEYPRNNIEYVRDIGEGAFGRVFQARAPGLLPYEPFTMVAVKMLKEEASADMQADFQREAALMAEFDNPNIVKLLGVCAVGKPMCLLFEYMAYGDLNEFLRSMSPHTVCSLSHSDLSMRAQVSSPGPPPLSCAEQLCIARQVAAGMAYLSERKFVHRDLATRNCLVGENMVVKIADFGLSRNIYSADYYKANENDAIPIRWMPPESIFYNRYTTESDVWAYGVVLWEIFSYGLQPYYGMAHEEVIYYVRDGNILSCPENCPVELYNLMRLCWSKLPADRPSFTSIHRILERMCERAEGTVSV

[2] = target: kinases (KINOMEscan panel) (Homo sapiens, UniProt O15264)
[3] = target: kinases (KINOMEscan panel) (Homo sapiens, UniProt P53350); details: PLK1; NEW KINOMEscan
Chain of kinases (KINOMEscan panel) (Homo sapiens, UniProt P53350) (P53350 whole entry): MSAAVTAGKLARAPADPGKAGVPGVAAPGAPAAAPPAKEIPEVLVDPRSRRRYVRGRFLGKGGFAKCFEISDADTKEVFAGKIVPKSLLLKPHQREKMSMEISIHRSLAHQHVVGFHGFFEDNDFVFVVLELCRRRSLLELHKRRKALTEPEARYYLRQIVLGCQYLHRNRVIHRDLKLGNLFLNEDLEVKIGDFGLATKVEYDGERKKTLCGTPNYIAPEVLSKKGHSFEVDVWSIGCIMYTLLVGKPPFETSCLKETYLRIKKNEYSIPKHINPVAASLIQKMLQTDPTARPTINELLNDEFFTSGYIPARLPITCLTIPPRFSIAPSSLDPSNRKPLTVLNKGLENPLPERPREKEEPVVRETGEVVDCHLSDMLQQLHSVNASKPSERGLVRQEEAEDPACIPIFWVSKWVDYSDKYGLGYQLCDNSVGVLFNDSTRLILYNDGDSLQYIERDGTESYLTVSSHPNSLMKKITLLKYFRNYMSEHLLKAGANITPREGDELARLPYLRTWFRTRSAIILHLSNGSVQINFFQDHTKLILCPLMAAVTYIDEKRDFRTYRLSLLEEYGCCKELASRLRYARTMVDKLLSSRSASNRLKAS

[4] = target: T2, kinases (KINOMEscan panel) (Homo sapiens, UniProt Q04771); details: ACVR1; NEW KINOMEscan
T2 sequence (Q04771 21-509): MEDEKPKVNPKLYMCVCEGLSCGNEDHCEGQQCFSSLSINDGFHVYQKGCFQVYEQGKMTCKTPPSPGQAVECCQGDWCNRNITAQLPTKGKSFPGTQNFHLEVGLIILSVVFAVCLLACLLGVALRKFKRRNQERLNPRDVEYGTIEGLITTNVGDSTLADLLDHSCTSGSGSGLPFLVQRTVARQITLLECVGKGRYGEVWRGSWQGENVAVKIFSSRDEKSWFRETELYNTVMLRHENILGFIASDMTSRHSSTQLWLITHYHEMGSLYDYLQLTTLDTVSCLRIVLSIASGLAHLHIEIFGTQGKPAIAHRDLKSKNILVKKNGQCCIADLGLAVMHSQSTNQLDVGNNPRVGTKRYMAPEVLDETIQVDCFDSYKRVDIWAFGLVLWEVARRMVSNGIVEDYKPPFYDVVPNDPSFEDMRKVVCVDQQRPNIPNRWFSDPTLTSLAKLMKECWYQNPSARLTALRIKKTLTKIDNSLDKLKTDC

[5] = target: kinases (KINOMEscan panel) (Homo sapiens, UniProt Q14680); details: kinase MELK; NEW KINOMEscan
Chain of kinases (KINOMEscan panel) (Homo sapiens, UniProt Q14680) (Q14680 whole entry): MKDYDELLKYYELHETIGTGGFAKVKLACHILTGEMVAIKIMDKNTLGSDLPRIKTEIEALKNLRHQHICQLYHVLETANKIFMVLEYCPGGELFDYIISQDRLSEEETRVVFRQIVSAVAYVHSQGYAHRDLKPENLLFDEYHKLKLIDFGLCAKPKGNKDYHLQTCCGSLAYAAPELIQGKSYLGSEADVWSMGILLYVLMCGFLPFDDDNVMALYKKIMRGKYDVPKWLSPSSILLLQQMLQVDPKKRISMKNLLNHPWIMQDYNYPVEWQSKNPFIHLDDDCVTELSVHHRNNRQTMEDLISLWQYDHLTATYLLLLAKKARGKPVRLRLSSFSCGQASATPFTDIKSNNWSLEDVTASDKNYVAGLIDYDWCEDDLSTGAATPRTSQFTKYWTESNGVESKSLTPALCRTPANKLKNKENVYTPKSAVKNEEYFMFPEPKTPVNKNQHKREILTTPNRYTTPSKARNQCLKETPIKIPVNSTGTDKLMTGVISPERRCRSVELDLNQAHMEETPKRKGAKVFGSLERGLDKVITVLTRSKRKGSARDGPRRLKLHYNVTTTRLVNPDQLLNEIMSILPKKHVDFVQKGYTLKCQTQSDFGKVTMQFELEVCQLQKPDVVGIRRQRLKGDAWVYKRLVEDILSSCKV

[6] = target: kinases (KINOMEscan panel) (Homo sapiens, UniProt Q15375); details: EPHA7; NEW KINOMEscan
Chain of kinases (KINOMEscan panel) (Homo sapiens, UniProt Q15375) (Q15375 28-998): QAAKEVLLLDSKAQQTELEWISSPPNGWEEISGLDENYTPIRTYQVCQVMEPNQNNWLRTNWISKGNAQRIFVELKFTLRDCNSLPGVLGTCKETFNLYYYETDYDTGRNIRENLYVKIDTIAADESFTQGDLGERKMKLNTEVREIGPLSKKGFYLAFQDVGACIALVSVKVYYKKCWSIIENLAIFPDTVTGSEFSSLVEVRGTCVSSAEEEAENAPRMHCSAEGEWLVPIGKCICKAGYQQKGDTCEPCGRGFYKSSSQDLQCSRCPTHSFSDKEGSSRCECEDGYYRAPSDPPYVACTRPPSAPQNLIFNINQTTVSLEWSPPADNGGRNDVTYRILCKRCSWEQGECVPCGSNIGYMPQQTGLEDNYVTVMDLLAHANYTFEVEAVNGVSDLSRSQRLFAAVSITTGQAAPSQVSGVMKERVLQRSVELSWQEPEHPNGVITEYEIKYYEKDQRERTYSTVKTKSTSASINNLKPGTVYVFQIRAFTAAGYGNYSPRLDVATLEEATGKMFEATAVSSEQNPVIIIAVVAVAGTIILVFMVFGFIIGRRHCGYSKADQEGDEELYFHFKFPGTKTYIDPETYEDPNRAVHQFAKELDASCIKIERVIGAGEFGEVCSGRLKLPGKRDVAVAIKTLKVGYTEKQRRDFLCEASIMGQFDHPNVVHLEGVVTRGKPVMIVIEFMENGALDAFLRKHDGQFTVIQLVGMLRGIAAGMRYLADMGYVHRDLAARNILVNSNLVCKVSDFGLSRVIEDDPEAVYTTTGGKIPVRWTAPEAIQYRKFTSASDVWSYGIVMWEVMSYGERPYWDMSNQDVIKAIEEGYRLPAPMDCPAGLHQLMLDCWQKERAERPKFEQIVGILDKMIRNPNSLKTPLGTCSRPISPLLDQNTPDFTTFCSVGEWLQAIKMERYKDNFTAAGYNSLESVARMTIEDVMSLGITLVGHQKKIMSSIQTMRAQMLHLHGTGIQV

[7] = target: kinases (KINOMEscan panel) (Homo sapiens, UniProt Q2M2I8); details: AAK1; NEW KINOMEscan
Chain of kinases (KINOMEscan panel) (Homo sapiens, UniProt Q2M2I8) (Q2M2I8 whole entry): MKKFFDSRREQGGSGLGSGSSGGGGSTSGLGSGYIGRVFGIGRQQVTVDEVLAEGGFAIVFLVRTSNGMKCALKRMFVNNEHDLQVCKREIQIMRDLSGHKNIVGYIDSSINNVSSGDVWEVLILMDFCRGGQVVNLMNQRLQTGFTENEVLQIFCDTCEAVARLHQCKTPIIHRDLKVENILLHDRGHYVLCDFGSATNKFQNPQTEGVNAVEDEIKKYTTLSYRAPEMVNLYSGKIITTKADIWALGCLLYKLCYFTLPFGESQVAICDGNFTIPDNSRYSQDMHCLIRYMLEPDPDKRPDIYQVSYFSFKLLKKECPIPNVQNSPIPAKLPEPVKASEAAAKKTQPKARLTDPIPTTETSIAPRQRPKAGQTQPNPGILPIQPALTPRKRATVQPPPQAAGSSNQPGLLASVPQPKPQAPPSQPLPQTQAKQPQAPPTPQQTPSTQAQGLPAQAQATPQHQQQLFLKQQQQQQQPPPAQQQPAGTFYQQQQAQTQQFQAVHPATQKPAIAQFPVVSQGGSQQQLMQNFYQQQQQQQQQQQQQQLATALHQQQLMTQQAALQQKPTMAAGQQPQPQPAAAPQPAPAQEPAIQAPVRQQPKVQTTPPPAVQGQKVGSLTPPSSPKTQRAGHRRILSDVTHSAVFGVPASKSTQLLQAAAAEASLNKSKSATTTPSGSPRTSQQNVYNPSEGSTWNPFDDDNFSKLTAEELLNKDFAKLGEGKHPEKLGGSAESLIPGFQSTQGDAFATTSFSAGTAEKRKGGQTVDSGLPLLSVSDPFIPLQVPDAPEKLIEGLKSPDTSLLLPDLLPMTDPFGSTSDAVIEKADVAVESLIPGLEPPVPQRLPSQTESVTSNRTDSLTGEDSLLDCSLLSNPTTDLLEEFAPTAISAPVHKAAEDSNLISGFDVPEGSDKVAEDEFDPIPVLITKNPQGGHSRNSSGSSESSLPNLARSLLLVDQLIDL

[8] = target: kinases (KINOMEscan panel) (Homo sapiens, UniProt Q8IVW4); details: kinase CDKL3; NEW KINOMEscan
[9] = target: T3, kinases (KINOMEscan panel) (Homo sapiens, UniProt Q8IWQ3); details: kinase BRSK2; NEW KINOMEscan
T3 sequence (Q8IWQ3 1-736): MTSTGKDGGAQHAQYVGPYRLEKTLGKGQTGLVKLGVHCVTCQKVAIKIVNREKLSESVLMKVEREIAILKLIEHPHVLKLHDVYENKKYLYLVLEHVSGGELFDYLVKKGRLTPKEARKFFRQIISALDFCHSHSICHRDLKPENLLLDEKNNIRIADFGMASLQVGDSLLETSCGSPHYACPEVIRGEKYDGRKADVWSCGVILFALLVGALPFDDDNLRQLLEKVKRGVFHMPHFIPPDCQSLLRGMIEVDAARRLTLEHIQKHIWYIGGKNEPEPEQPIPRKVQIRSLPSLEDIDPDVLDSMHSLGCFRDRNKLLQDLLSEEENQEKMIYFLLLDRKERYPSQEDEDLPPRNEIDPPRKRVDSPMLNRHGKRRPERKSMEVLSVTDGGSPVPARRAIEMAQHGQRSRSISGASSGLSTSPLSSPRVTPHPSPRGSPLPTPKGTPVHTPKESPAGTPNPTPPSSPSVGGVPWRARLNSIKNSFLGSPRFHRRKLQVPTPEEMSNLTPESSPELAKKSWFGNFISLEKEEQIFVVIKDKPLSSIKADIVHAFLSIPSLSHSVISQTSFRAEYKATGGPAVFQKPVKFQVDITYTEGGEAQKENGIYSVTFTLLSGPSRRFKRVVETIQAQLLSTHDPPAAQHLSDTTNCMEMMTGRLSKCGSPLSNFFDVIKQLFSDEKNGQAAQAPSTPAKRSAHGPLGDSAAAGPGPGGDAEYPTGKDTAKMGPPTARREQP

[10] = target: kinases (KINOMEscan panel) (Homo sapiens, UniProt Q9P2K8, S808G)
Chain of kinases (KINOMEscan panel) (Homo sapiens, UniProt Q9P2K8, S808G) (Q9P2K8 whole entry S808G): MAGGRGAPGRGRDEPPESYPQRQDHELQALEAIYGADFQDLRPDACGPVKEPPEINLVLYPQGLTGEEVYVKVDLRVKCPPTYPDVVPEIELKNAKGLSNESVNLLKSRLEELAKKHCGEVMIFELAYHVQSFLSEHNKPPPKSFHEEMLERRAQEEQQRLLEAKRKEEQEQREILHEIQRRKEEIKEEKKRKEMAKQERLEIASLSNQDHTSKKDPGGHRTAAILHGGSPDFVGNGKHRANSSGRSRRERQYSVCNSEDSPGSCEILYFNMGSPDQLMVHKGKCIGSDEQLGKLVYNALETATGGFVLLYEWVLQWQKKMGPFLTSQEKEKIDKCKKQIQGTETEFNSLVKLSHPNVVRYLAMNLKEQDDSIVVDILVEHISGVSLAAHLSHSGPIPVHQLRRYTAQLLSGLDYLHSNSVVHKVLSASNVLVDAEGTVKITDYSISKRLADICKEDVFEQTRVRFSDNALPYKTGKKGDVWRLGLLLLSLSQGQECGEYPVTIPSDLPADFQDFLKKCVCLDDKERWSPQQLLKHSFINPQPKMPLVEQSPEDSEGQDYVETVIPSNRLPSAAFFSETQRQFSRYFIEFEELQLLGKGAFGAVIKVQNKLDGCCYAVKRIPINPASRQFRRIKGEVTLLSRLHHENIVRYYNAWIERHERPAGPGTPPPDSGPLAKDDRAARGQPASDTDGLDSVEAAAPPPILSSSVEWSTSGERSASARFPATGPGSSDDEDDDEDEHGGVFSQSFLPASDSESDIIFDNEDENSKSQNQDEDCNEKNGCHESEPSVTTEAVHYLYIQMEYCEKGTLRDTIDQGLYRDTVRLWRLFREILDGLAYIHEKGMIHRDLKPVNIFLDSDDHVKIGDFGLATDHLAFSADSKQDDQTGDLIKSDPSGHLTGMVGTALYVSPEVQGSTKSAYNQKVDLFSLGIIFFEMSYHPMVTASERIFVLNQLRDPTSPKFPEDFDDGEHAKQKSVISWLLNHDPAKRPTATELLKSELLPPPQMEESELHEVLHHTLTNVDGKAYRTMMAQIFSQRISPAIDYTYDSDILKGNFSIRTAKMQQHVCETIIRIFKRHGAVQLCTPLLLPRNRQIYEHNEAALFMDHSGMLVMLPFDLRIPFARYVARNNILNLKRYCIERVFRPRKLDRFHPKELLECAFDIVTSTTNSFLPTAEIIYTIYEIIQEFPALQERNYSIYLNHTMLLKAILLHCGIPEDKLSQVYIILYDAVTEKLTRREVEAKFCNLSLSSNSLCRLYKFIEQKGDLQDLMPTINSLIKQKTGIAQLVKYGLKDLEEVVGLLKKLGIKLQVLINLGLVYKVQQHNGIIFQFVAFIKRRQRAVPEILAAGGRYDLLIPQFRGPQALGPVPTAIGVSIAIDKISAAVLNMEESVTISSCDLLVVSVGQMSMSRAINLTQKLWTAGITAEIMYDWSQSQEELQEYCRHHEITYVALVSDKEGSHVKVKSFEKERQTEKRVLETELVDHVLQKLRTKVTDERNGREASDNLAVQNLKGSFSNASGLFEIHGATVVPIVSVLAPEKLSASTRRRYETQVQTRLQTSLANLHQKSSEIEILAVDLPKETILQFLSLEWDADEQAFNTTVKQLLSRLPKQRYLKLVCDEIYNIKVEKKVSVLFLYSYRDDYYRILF

Row | SMILES | KINOMEscan MUSK [1] | KINOMEscan MAPK13/p38-delta [2] | KINOMEscan PLK1 [3] | KINOMEscan ACVR1 [4] | KINOMEscan MELK [5] | KINOMEscan EPHA7 [6] | KINOMEscan AAK1 [7] | KINOMEscan CDKL3 [8] | KINOMEscan BRSK2 [9] | KINOMEscan EIF2AK4/GCN2(Kin.Dom.2,S808G) [10]
1 | Cc1cccc(-c2nc(Nc3ccc4nn(C)cc4c3)c3ccccc3n2)n1 [NK167] | 2 | 0 | 0 | 0 | 0 | 0 | 1 | 12 | 9 | 38
2 | Cc1cccc(-c2nc(N(C)c3ccc4ncsc4c3)c3ccccc3n2)n1 [NK-161] | 0 | 6 | 4 | 0 | 2 | 0 | 5 | 0 | 12 | 53
